Measurements: patent publication US20260285850A1, “SUBSTITUTED OXAZOLIDINONES AND IMIDAZOLINONES AS HERBICIDES” (FMC CORPORATION, priority 2023, published 2026)

How the values were obtained:
Assay type in all cases: in vivo
[1] = system: barnyardgrass (Echinochloa crus-galli); assay: Test A preemergence soil spray, visual injury rating 0-100; details: 10 days, 0 = no effect, 100 = complete control
In short: (§1)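 Greenhouse test: loam/sand pots received a surfactant-containing formulation, as a preemergence directed soil spray or a postemergence spray on young plants. Injury was judged visually at day 10 relative to untreated controls.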

[2] = system: blackgrass (Alopecurus myosuroides); assay: as above; details: 10 days, 0 = no effect, 100 = complete control
In short: as §1

corn (Zea mays) [3] = assay: as above; details: 10 days, 0 = no effect, 100 = complete control
In short: as §1

[4] = system: green foxtail (Setaria viridis); assay: as above; details: 10 days, 0 = no effect, 100 = complete control
In short: as §1

kochia (Bassia scoparia) [5] = assay: as above; details: 10 days, 0 = no effect, 100 = complete control
In short: as §1

[6] = system: oat, wild (wild oat, Avena fatua); assay: as above; details: 10 days, 0 = no effect, 100 = complete control
In short: as §1

[7] = system: palmer (palmer amaranth, palmer pigweed, Amaranthus palmeri); assay: as above; details: 10 days, 0 = no effect, 100 = complete control
In short: as §1

[8] = system: ragweed (common ragweed, Ambrosia artemisiifolia); assay: as above; details: 10 days, 0 = no effect, 100 = complete control
In short: as §1

[9] = system: ryegrass, Italian (italian ryegrass, Lolium multiflorum); assay: as above; details: 10 days, 0 = no effect, 100 = complete control
In short: as §1

soybean (Glycine max) [10] = assay: as above; details: 10 days, 0 = no effect, 100 = complete control
In short: as §1

[11] = system: wheat (Triticum aestivum); assay: as above; details: 10 days, 0 = no effect, 100 = complete control
In short: as §1

[12] = system: barnyardgrass (Echinochloa crus-galli); assay: Test A postemergence application, visual injury rating 0-100; details: 10 days
In short: as §1

[13] = system: blackgrass (Alopecurus myosuroides); assay: as above; details: 10 days
In short: as §1

corn (Zea mays) [14] = assay: as above; details: 10 days
In short: as §1

[15] = system: galium (catchweed bedstraw, Galium aparine); assay: as above; details: 10 days
In short: as §1

[16] = system: green foxtail (Setaria viridis); assay: as above; details: 10 days
In short: as §1

[17] = system: horseweed (Erigeron canadensis); assay: as above; details: 10 days
In short: as §1

kochia (Bassia scoparia) [18] = assay: as above; details: 10 days
In short: as §1

[19] = system: oat, wild (wild oat, Avena fatua); assay: as above; details: 10 days
In short: as §1

[20] = system: palmer (palmer amaranth, palmer pigweed, Amaranthus palmeri); assay: as above; details: 10 days
In short: as §1

[21] = system: ragweed (common ragweed, Ambrosia artemisiifolia); assay: as above; details: 10 days
In short: as §1

[22] = system: ryegrass, Italian (italian ryegrass, Lolium multiflorum); assay: as above; details: 10 days
In short: as §1

soybean (Glycine max) [23] = assay: as above; details: 10 days
In short: as §1

[24] = system: wheat (Triticum aestivum); assay: as above; details: 10 days
In short: as §1

[25] = system: barnyardgrass (Echinochloa crusgalli); assay: Test B flooded paddy test, visual plant response rating 0-100; details: 250 g ai/ha, Flood, applied to paddy water, evaluated after 13 days
In short: (§2)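 Paddy-water application: test compounds went directly into water flooded 3 cm above the soil surface, with plants at 2 leaves. After a 13-day greenhouse period, responses were judged by eye relative to controls; a dash marks an untested entry.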

[26] = system: ducksalad (Heteranthera limosa); assay: as above; details: 250 g ai/ha, Flood, applied to paddy water, evaluated after 13 days
In short: as §2

rice (Oryza sativa) = assay: as above; details: 250 g ai/ha, Flood, applied to paddy water, evaluated after 13 days
In short: as §2

[27] = system: sedge, umbrella (small-flower umbrella sedge, Cyperus difformis); assay: as above; details: 250 g ai/ha, Flood, applied to paddy water, evaluated after 13 days
In short: as §2

[28] = 31 g ai/ha, postemergence, 0 = no effect, 100 = complete control
[29] = Postemergence, 125 g ai/ha, 0 is no effect, 100 is complete control

Q: With `COC(=O)C1=CCC(NC(=O)C2(C)CN(c3cc(F)cc(F)c3)C(=O)O2)C1` (single isomer, unassigned) [Compound 20] as the compound, how does the “Barnyardgrass plant response rating (0-100)” value ([1]; 31 g ai/ha) read?
A: 0

Q: And the “Barnyardgrass plant response rating (0 to 100 scale)” value ([1]; 125 g ai/ha)?
A: 0

Q: What about the “Blackgrass plant response rating (0-100)” value ([2]; 31 g ai/ha) of the same compound?
A: 0

Q: And the “Blackgrass plant response rating (0 to 100 scale)” value ([2]; 125 g ai/ha)?
A: 0

Q: What about the “Corn plant response rating (0-100)” value (corn (Zea mays) [3]; 31 g ai/ha) of the same compound?
A: 0

Q: What about the “Corn plant response rating (0 to 100 scale)” value (corn (Zea mays) [3]; 125 g ai/ha) of the same compound?
A: 0

Q: What about the “Foxtail, Green plant response rating (0-100)” value ([4]; 31 g ai/ha) of the same compound?
A: 0

Q: And the “Foxtail, Green plant response rating (0 to 100 scale)” value ([4]; 125 g ai/ha)?
A: 0

Q: And the “Kochia plant response rating (0-100)” value (kochia (Bassia scoparia) [5]; 31 g ai/ha)?
A: 0

Q: What about the “Kochia plant response rating (0 to 100 scale)” value (kochia (Bassia scoparia) [5]; 125 g ai/ha) of the same compound?
A: 0

Q: What about the “Oat, Wild plant response rating (0-100)” value ([6]; 31 g ai/ha) of the same compound?
A: 0

Q: What about the “Oat, Wild plant response rating (0 to 100 scale)” value ([6]; 125 g ai/ha) of the same compound?
A: 0

Q: And the “Amaranth, Palmer plant response rating (0-100)” value ([7]; 31 g ai/ha)?
A: 0

Q: What about the “Amaranth, Palmer plant response rating (0 to 100 scale)” value ([7]; 125 g ai/ha) of the same compound?
A: 0

Q: What about the “Ragweed plant response rating (0-100)” value ([8]; 31 g ai/ha) of the same compound?
A: 30

Q: And the “Ragweed plant response rating (0 to 100 scale)” value ([8]; 125 g ai/ha)?
A: 0

Q: What about the “Ryegrass, Italian plant response rating (0-100)” value ([9]; 31 g ai/ha) of the same compound?
A: 0

Q: And the “Ryegrass, Italian plant response rating (0 to 100 scale)” value ([9]; 125 g ai/ha)?
A: 20

Q: And the “Soybean plant response rating (0-100)” value (soybean (Glycine max) [10]; 31 g ai/ha)?
A: 20

Q: And the “Soybean plant response rating (0 to 100 scale)” value (soybean (Glycine max) [10]; 125 g ai/ha)?
A: 60

Q: And the “Wheat plant response rating (0-100)” value ([11]; 31 g ai/ha)?
A: 0

Q: What about the “Wheat plant response rating (0 to 100 scale)” value ([11]; 125 g ai/ha) of the same compound?
A: 20

Q: And the “Barnyardgrass plant response rating (0-100)” value [12, 28]?
A: 0

Q: What about the “Barnyardgrass plant response rating (0 to 100 scale)” value [12, 29] of the same compound?
A: 90

Q: What about the “Blackgrass plant response rating (0-100)” value [13, 28] of the same compound?
A: 0

Q: And the “Blackgrass plant response rating (0 to 100 scale)” value [13, 29]?
A: 60

Q: And the “Corn plant response rating (0-100)” value (corn (Zea mays) [14]; [28])?
A: 40

Q: And the “Corn plant response rating (0 to 100 scale)” value (corn (Zea mays) [14]; [29])?
A: 100

Q: What about the “Galium plant response rating (0-100)” value [15, 28] of the same compound?
A: 20

Q: And the “Galium plant response rating (0 to 100 scale)” value [15, 29]?
A: 80

Q: And the “Foxtail, Green plant response rating (0-100)” value [16, 28]?
A: 20

Q: And the “Foxtail, Green plant response rating (0 to 100 scale)” value [16, 29]?
A: 80

Q: And the “Horseweed plant response rating (0-100)” value [17, 28]?
A: 0

Q: What about the “Horseweed plant response rating (0 to 100 scale)” value [17, 29] of the same compound?
A: 0

Q: What about the “Kochia plant response rating (0-100)” value (kochia (Bassia scoparia) [18]; [28]) of the same compound?
A: 0

Q: And the “Kochia plant response rating (0 to 100 scale)” value (kochia (Bassia scoparia) [18]; [29])?
A: 50

Q: And the “Oat, Wild plant response rating (0-100)” value [19, 28]?
A: 20

Q: And the “Oat, Wild plant response rating (0 to 100 scale)” value [19, 29]?
A: 60

Q: And the “Amaranth, Palmer plant response rating (0-100)” value [20, 28]?
A: 0

Q: What about the “Amaranth, Palmer / Pigweed, Palmer plant response rating (0 to 100 scale)” value [20, 29] of the same compound?
A: 30

Q: What about the “Ragweed plant response rating (0-100)” value [21, 28] of the same compound?
A: 0

Q: And the “Ragweed plant response rating (0 to 100 scale)” value [21, 29]?
A: 30

Q: What about the “Ryegrass, Italian plant response rating (0-100)” value [22, 28] of the same compound?
A: 0

Q: And the “Ryegrass, Italian plant response rating (0 to 100 scale)” value [22, 29]?
A: 80

Q: And the “Soybean plant response rating (0-100)” value (soybean (Glycine max) [23]; [28])?
A: 50

Q: What about the “Soybean plant response rating (0 to 100 scale)” value (soybean (Glycine max) [23]; [29]) of the same compound?
A: 90

Q: And the “Wheat plant response rating (0-100)” value [24, 28]?
A: 0

Q: What about the “Wheat plant response rating (0 to 100 scale)” value [24, 29] of the same compound?
A: 80

Q: And the “Plant response rating, Barnyardgrass (0 to 100 scale, 0 is no effect and 100 is complete control)” value [25]?
A: 0

Q: What about the “Plant response rating, Ducksalad (0 to 100 scale, 0 is no effect and 100 is complete control)” value [26] of the same compound?
A: 0

Q: What about the “Plant response rating, Rice (0 to 100 scale, 0 is no effect and 100 is complete control)” value (rice (Oryza sativa)) of the same compound?
A: 0

Q: And the “Plant response rating, Sedge, Umbrella (0 to 100 scale, 0 is no effect and 100 is complete control)” value [27]?
A: 0
